Reference: US20070117743A1, “New antitumoral compounds” (priority 2003, published 2007)

Legend:
Format in all cases: cell-based, human
HeLa-APL = experiment: SRB colorimetric assay of cell growth and viability, HeLa-APL; conditions: 48 hours exposure
LoVo-Dox = experiment: SRB colorimetric assay of cell growth and viability, LoVo-Dox; conditions: 48 hours exposure
Outline: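 Continuous 48-hour exposure of cells plated at 5×10^3 per well, with compounds diluted in DMSO:EtOH:PBS (0.5:0.5:99) over 10 to 10^−8 μg/mL. Staining with SRB and reading at 490 nm give GI, TGI and LC.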

SK-MEL-28 = experiment: SRB colorimetric assay of cell growth and viability, SK-MEL-28; conditions: 48 hours exposure, SRB
PANC-1 = experiment: SRB colorimetric assay of cell growth and viability, PANC-1; conditions: 48 hours exposure
HT-29 = experiment: SRB colorimetric assay of cell growth and viability, HT-29; conditions: 48 hours exposure
LNCaP = experiment: SRB colorimetric assay of cell growth and viability, LNCaP; conditions: 48 hours exposure, SRB
LoVo = experiment: SRB colorimetric assay of cell growth and viability, LoVo; conditions: 48 hours exposure
HeLa = experiment: SRB colorimetric assay of cell growth and viability, HeLa; conditions: 48 hours exposure
IGROV-ET = experiment: SRB colorimetric assay of cell growth and viability, IGROV-ET; conditions: 48 hours exposure, SRB
SK-BR-3 = experiment: SRB colorimetric assay of cell growth and viability, SK-BR-3; conditions: 48 hours exposure, SRB
A-549 = experiment: SRB colorimetric assay of cell growth and viability, A-549; conditions: 48 hours exposure
K-562 = experiment: SRB colorimetric assay of cell growth and viability, K-562; conditions: 48 hours exposure
DU-145 = experiment: SRB colorimetric assay of cell growth and viability, DU-145; conditions: 48 hours exposure, SRB
IGROV-1 = experiment: SRB colorimetric assay of cell growth and viability, IGROV-1; conditions: 48 hours exposure, SRB

In the case of `C/C=C1\NC(=O)[C@H](Cc2ccccc2)NC(=O)[C@@H](C(C)C)NC(=O)[C@@H]([C@@H](C)CC)NC(=O)[C@H](NC(=O)[C@H](NC(=O)[C@H](CCCN)NC(=O)[C@H]2CCCN2C(=O)[C@H](NC(=O)[C@@H](NC(=O)[C@@H](NC(=O)[C@@H](C(C)C)N(CCCCCCC)CCCCCCC)[C@@H](C)O)C(C)C)C(C)C)[C@@H](C)CC)[C@@H](C)OC(=O)[C@H](C(C)C)NC1=O` [Compound 98, [no5-MeHex^14-N-(Hep)2-D-Val^13]-Kahalalide F], the “TGI HELA-APL” value (HeLa-APL; HELA-APL) is reported as 3.46E−06 Molar, the “TGI LOVO-DOX” value (LoVo-Dox; LOVO-DOX) is reported as 6.40E−06 Molar and the “TGI MEL-28” value (SK-MEL-28) is reported as 6.40E−06 Molar. The “TGI PANC-1” value (PANC-1; PANC-1) was 6.40E−06 Molar, the “TGI HT-29” value (HT-29; HT-29) was 6.40E−06 Molar and the “TGI LN-caP” value (LNCaP) was 6.40E−06 Molar. The “TGI LOVO” value (LoVo; LOVO) was 6.40E−06 Molar, the “TGI HELA” value (HeLa; HELA) was 2.43E−06 Molar and the “TGI IGROV-ET” value (IGROV-ET) was 6.40E−06 Molar. The “TGI SK-BR-3” value (SK-BR-3) was 6.40E−06 Molar, the “TGI A-549” value (A-549; A-549) was 6.40E−06 Molar and the “TGI K-562” value (K-562; K-562) was 6.40E−06 Molar. The “TGI DU-145” value (DU-145) was 6.40E−06 Molar and the “TGI IGROV” value (IGROV-1) was 6.40E−06 Molar.

In the case of `C/C=C1\NC(=O)[C@H](Cc2ccccc2)NC(=O)[C@@H](C(C)C)NC(=O)[C@@H]([C@@H](C)CC)NC(=O)[C@H](NC(=O)[C@H](NC(=O)[C@H](CCCNC(=O)C(F)(F)F)NC(=O)[C@H]2CCCN2C(=O)[C@H](NC(=O)[C@@H](NC(=O)[C@@H](NC(=O)[C@H](NC(=O)CC[C@@H](C)CC)C(C)C)[C@@H](C)OC(=O)C(F)(F)F)C(C)C)C(C)C)[C@@H](C)CC)[C@@H](C)OC(=O)[C@H](C(C)C)NC1=O` [Compound 95, [Orn(N^δTfa)^8,Thr(OTfa)^12, 4(S)MeHex^14]-Kahalalide F], the GI50 (HeLa-APL; SRB) is reported as 617 nM, the “TGI HELA-APL” value (HeLa-APL; SRB) is reported as 1.52E−06 Molar and the CC50 (HeLa-APL; SRB, read-out: LC50 HELA-APL) is reported as 3740 nM. The GI50 (LoVo-Dox; SRB) was 124 nM, the “TGI LOVO-DOX” value (LoVo-Dox; SRB) was 2.41E−07 Molar and the CC50 (LoVo-Dox; SRB, read-out: LC50 LOVO-DOX) was 471 nM. For the same molecule, the GI50 (SK-MEL-28) was 1030 nM, the “TGI MEL-28” value (SK-MEL-28) was 1.84E−06 Molar and the CC50 (SK-MEL-28; read-out: LC50 MEL-28) was 3280 nM. For the same molecule, the GI50 (PANC-1; SRB) was 3580 nM, the “TGI PANC-1” value (PANC-1; SRB) was 5.99E−06 Molar and the CC50 (PANC-1; SRB, read-out: LC50 PANC-1) was 5990 nM. The “TGI HT-29” value (HT-29; SRB) was 1.93E−07 Molar, the GI50 (HT-29; SRB, read-out: GI50 HT-29) was 86.2 nM and the CC50 (HT-29; SRB, read-out: LC50 HT-29) was 432 nM. The “TGI LN-caP” value (LNCaP) was 5.99E−06 Molar, the GI50 (LNCaP; read-out: GI50 LN-caP) was 1700 nM and the CC50 (LNCaP; read-out: LC50 LN-caP) was 5990 nM. For the same molecule, the GI50 (LoVo; SRB) was 125 nM, the “TGI LOVO” value (LoVo; SRB) was 2.34E−07 Molar and the CC50 (LoVo; SRB, read-out: LC50 LOVO) was 437 nM. The GI50 (HeLa; SRB) was 162 nM, the “TGI HELA” value (HeLa; SRB) was 3.06E−07 Molar and the CC50 (HeLa; SRB, read-out: LC50 HELA) was 579 nM. For the same molecule, the GI50 (IGROV-ET) was 219 nM, the “TGI IGROV-ET” value (IGROV-ET) was 3.77E−07 Molar and the CC50 (IGROV-ET; read-out: LC50 IGROV-ET) was 916 nM. The GI50 (SK-BR-3) was 73.1 nM, the LC50 (SK-BR-3) was 520 nM and the “TGI SK-BR-3” value (SK-BR-3) was 1.95E−07 Molar. The “TGI A-549” value (A-549; SRB) was 2.29E−06 Molar, the GI50 (A-549; SRB, read-out: GI50 A-549) was 1150 nM and the CC50 (A-549; SRB, read-out: LC50 A-549) was 4550 nM. For the same molecule, the GI50 (K-562; SRB) was 3570 nM, the “TGI K-562” value (K-562; SRB) was 5.99E−06 Molar and the CC50 (K-562; SRB, read-out: LC50 K-562) was 5990 nM. For the same molecule, the GI50 (DU-145) was 892 nM, the LC50 (concentration causing 50% net cell kill) (DU-145) was 3360 nM and the “TGI DU-145” value (DU-145) was 1.73E−06 Molar. For the same molecule, the GI50 (IGROV-1) was 178 nM, the LC50 (concentration causing 50% net cell killing) (IGROV-1) was 550 nM and the “TGI IGROV” value (IGROV-1) was 3.13E−07 Molar.
